In patent publication US20240335429A1, “MOLECULAR GLUE AND SALL4 DEGRADER” (National University of Singapore, priority 2021, published 2024):

Target: T1, SALL4 (1-300aa) protein (Homo sapiens, UniProt Q9UJQ4)
T1 construct: SALL4 (1-300aa) cloned into this vector was expressed with the N-terminal 6-His tags; His6 (pET His6 TEV LIC vector 2B-T, TEV site) (N); made in house; host or cells: E. coli BL21 (DE3)/pLysS
T1 sequence (Q9UJQ4 1-300): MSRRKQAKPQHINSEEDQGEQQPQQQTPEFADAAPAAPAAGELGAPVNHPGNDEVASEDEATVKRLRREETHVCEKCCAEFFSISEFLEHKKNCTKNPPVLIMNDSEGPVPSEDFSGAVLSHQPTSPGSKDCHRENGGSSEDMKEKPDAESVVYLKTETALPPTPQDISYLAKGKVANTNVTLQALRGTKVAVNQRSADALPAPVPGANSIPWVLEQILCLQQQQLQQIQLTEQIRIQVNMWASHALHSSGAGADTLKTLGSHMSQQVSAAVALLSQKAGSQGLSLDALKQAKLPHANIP
Test: Thermal shift assay (TSA) with Sypro Orange
Type: binding
Description: A library of 50,000 small molecules from the Novartis Biomedical Research Institute (NIBR) was screened at 50 μM and 100 μM against 13.8 μM of purified SALL4 (1-300aa) protein in the buffer containing potassium phosphate (100 mM) and NaCl (100 mM) at pH 7. Screening assay was performed in 384-well thin wall white PCR plates using LightCyler® 480 Real-Time PCR System (Roche Applied Sciences). A 7-min run was started at 30° C. and ended at 90° C. Sypro Orange was used as the sensitive fluorescent dye for monitoring thermal protein denaturation. Hits were defined as compounds that can induce a change in protein melting points 3 times higher than the standard deviations of the apo-protein melting point from DMSO control.
To experimentally assess the stoichiometry of the binding between SALL4 (1-300aa) and QE-18-WG07, the inventors titrated 13.8 μM of purified recombinant SALL4 (1-300aa) protein with 12 increasing concentrations of QE-18-WG07 and evaluated the dose-response correlation in the ΔTm shift by following the protocol for TSA in Example 7.

[1] = QE-18-WG07 0.0061 μM, 30 min incubation
[2] = QE-18-WG07 0.0122 μM, 30 min incubation
[3] = QE-18-WG07 0.0488 μM, 30 min incubation
[4] = QE-18-WG07 0.0977 μM, 30 min incubation
[5] = QE-18-WG07 0.1953 μM, 30 min incubation
[6] = QE-18-WG07 0.7813 μM, 30 min incubation
[7] = QE-18-WG07 1.5625 μM, 30 min incubation
[8] = QE-18-WG07 3.1250 μM, 30 min incubation
[9] = QE-18-WG07 6.2500 μM, 30 min incubation
[10] = QE-18-WG07 12.5000 μM, 30 min incubation
[11] = QE-18-WG07 25.0000 μM, 30 min incubation
[12] = QE-18-WG07 50.0000 μM, 30 min incubation

COc1ccccc1NC(=O)Nc1ccc([N+](=O)[O-])cc1O [QE-18-WG07]
concentration at which ΔTm saturation occurs (13.8 μM SALL4 (1-300aa), 30 min incubation): ≥ 12.5 µM | SALL4 (1-300) Melting Temperature Shift (° C.) Rep 1 [1]: −0.357 °C | SALL4 (1-300) Melting Temperature Shift (° C.) Rep 2 [1]: −0.357 °C | SALL4 (1-300) Melting Temperature Shift (° C.) Rep 1 [2]: −0.267 °C | SALL4 (1-300) Melting Temperature Shift (° C.) Rep 2 [2]: −0.267 °C | SALL4 (1-300) Melting Temperature Shift (° C.) Rep 1 [3]: −0.077 °C | SALL4 (1-300) Melting Temperature Shift (° C.) Rep 2 [3]: −0.357 °C | SALL4 (1-300) Melting Temperature Shift (° C.) Rep 1 [4]: −0.357 °C | SALL4 (1-300) Melting Temperature Shift (° C.) Rep 2 [4]: −0.357 °C | SALL4 (1-300) Melting Temperature Shift (° C.) Rep 1 [5]: −0.267 °C | SALL4 (1-300) Melting Temperature Shift (° C.) Rep 2 [5]: −0.267 °C | SALL4 (1-300) Melting Temperature Shift (° C.) Rep 1 [6]: −0.167 °C | SALL4 (1-300) Melting Temperature Shift (° C.) Rep 2 [6]: −0.167 °C | SALL4 (1-300) Melting Temperature Shift (° C.) Rep 1 [7]: 0.503 °C | SALL4 (1-300) Melting Temperature Shift (° C.) Rep 2 [7]: 0.503 °C | SALL4 (1-300) Melting Temperature Shift (° C.) Rep 1 [8]: 0.413 °C | SALL4 (1-300) Melting Temperature Shift (° C.) Rep 2 [8]: 0.793 °C | SALL4 (1-300) Melting Temperature Shift (° C.) Rep 1 [9]: 0.703 °C | SALL4 (1-300) Melting Temperature Shift (° C.) Rep 2 [9]: 0.703 °C | SALL4 (1-300) Melting Temperature Shift (° C.) Rep 1 [10]: 1.373 °C | SALL4 (1-300) Melting Temperature Shift (° C.) Rep 2 [10]: 1.083 °C | SALL4 (1-300) Melting Temperature Shift (° C.) Rep 1 [11]: 1.273 °C | SALL4 (1-300) Melting Temperature Shift (° C.) Rep 2 [11]: 1.273 °C | SALL4 (1-300) Melting Temperature Shift (° C.) Rep 1 [12]: 1.273 °C | SALL4 (1-300) Melting Temperature Shift (° C.) Rep 2 [12]: 0.983 °C | ΔTm at 100 µM (SALL4(1-300) melting temperature shift, mean ± SD (n = 2), [compound] = 100 μM, 30 min): 1.15 ± 0.01 °C | Thermal Shift Assay Type ([compound] = 100 μM, 30 min): Positive shifter
